According to the supplement of paper PMC4932681:

Tests used:
[1] = test system: BT-474 Tam1; experiment: relative IC50 (midpoint of fitted logistic curve, plateau may be below 50% inhibition; CellTiter-Glo viability); higher = less potent; conditions: 4-OH-tamoxifen in medium 1 µM; 72 h
Method in brief: (§1)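 Breast cancer cell lines and their resistant derivatives were seeded into 384-well plates containing library drugs at five concentrations across a 10 000-fold range, with resistant lines kept in medium with 1 μM of the selecting drug. After 72 h at 37 °C, CellTiter-Glo viability was read on a PHERAstar and normalised to vehicle-only and positive controls. Logistic dose–response fits in the Breeze pipeline gave drug sensitivity score, relative IC50 (curve midpoint) and top-dose inhibition.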

[2] = test system: ZR-75-1 Tam2; experiment: as above; conditions: 4-OH-tamoxifen in medium 1 µM; 72 h
Method in brief: as §1

[3] = test system: T-47D Tam1; experiment: as above; conditions: 4-OH-tamoxifen in medium 1 µM; 72 h
Method in brief: as §1

[4] = test system: BT-474; experiment: as above; conditions: 72 h
Method in brief: as §1

[5] = test system: MCF-7; experiment: as above; conditions: 72 h
Method in brief: as §1

[6] = test system: MCF-7 Tam1; experiment: as above; conditions: 4-OH-tamoxifen in medium 1 µM; 72 h
Method in brief: as §1

[7] = test system: ZR-75-1 Tam1; experiment: as above; conditions: 4-OH-tamoxifen in medium 1 µM; 72 h
Method in brief: as §1

[8] = test system: T-47D; experiment: as above; conditions: 72 h
Method in brief: as §1

[9] = test system: ZR-75-1; experiment: as above; conditions: 72 h
Method in brief: as §1

[10] = test system: BT-474 Tam2; experiment: as above; conditions: 4-OH-tamoxifen in medium 1 µM; 72 h
Method in brief: as §1

[11] = test system: T-47D Tam2; experiment: as above; conditions: 4-OH-tamoxifen in medium 1 µM; 72 h
Method in brief: as §1

[12] = test system: BT-474 Tam1; experiment: drug sensitivity score (DSS) (DSS (dimensionless)); higher = more sensitive; extreme values may be limits of the assay; conditions: 4-OH-tamoxifen in medium 1 µM; 72 h
Method in brief: as §1

[13] = test system: ZR-75-1 Tam2; experiment: as above; conditions: 4-OH-tamoxifen in medium 1 µM; 72 h
Method in brief: as §1

[14] = test system: T-47D Tam1; experiment: as above; conditions: 4-OH-tamoxifen in medium 1 µM; 72 h
Method in brief: as §1

[15] = test system: BT-474; experiment: as above; conditions: 72 h
Method in brief: as §1

[16] = test system: MCF-7; experiment: as above; conditions: 72 h
Method in brief: as §1

[17] = test system: MCF-7 Tam1; experiment: as above; conditions: 4-OH-tamoxifen in medium 1 µM; 72 h
Method in brief: as §1

[18] = test system: ZR-75-1 Tam1; experiment: as above; conditions: 4-OH-tamoxifen in medium 1 µM; 72 h
Method in brief: as §1

[19] = test system: T-47D; experiment: as above; conditions: 72 h
Method in brief: as §1

[20] = test system: ZR-75-1; experiment: as above; conditions: 72 h
Method in brief: as §1

[21] = test system: BT-474 Tam2; experiment: as above; conditions: 4-OH-tamoxifen in medium 1 µM; 72 h
Method in brief: as §1

[22] = test system: T-47D Tam2; experiment: as above; conditions: 4-OH-tamoxifen in medium 1 µM; 72 h
Method in brief: as §1

Row | Compound | relative IC50 [1] | relative IC50 [3] | relative IC50 ([4]; 4-OH-tamoxifen in medium 0 µM) | relative IC50 ([4]; 4-OH-tamoxifen in medium 1 µM) | relative IC50 ([5]; 4-OH-tamoxifen in medium 0 µM) | relative IC50 ([5]; 4-OH-tamoxifen in medium 1 µM) | relative IC50 [6] | relative IC50 ([8]; 4-OH-tamoxifen in medium 0 µM) | relative IC50 ([8]; 4-OH-tamoxifen in medium 1 µM) | relative IC50 [10] | relative IC50 [11] | relative IC50 [2] | relative IC50 [7] | relative IC50 ([9]; 4-OH-tamoxifen in medium 0 µM) | relative IC50 ([9]; 4-OH-tamoxifen in medium 1 µM) | drug sensitivity score [12] | drug sensitivity score [13] | drug sensitivity score [14] | drug sensitivity score ([15]; 4-OH-tamoxifen in medium 0 µM) | drug sensitivity score ([15]; 4-OH-tamoxifen in medium 1 µM) | drug sensitivity score ([16]; 4-OH-tamoxifen in medium 0 µM) | drug sensitivity score ([16]; 4-OH-tamoxifen in medium 1 µM) | drug sensitivity score [17] | drug sensitivity score [18] | drug sensitivity score ([19]; 4-OH-tamoxifen in medium 0 µM) | drug sensitivity score ([19]; 4-OH-tamoxifen in medium 1 µM) | drug sensitivity score ([20]; 4-OH-tamoxifen in medium 0 µM) | drug sensitivity score ([20]; 4-OH-tamoxifen in medium 1 µM) | drug sensitivity score [21] | drug sensitivity score [22]
1 | NCCCNCCSP(=O)(O)O [Amifostine] | > 10000 nM | > 10000 nM | > 10000 nM | > 10000 nM | > 10000 nM | > 10000 nM | > 10000 nM | > 10000 nM | > 10000 nM | > 10000 nM | > 10000 nM | > 10000 nM | > 10000 nM | > 10000 nM | > 10000 nM | 0 | 0 | 0 | 0 | 0 | 0 | 0 | 0 | 0 | 0 | 0 | 0 | 0 | 0 | 0
2 | Nc1nc(=O)c2c([nH]1)NCC(CNc1ccc(C(=O)N[C@@H](CCC(=O)O)C(=O)O)cc1)N2C=O (mixture of isomers) [Folinic acid] | > 990000 nM | > 990000 nM | > 990000 nM | > 990000 nM | > 990000 nM | > 990000 nM | > 990000 nM | > 990000 nM | > 990000 nM | > 990000 nM | > 990000 nM | > 990000 nM | > 990000 nM | > 990000 nM | > 990000 nM | 0 | 0 | 0 | 0 | 0 | 0 | 0 | 0 | 0 | 0 | 0 | 0.942 | 0 | 0 | 0
3 | O=C(O)C(=O)O.[NH-][C@@H]1CCCC[C@H]1[NH-].[Pt+2] [Oxaliplatin] | > 10000 nM | > 10000 nM | > 10000 nM | > 10000 nM | > 10000 nM | > 10000 nM | > 10000 nM | > 10000 nM | > 10000 nM | > 10000 nM | > 10000 nM | > 10000 nM | > 10000 nM | > 10000 nM | > 10000 nM | 0 | 0 | 0 | 0 | 0 | 0 | 0 | 0 | 0 | 0 | 0 | 0 | 0 | 0 | 0
4 | CO[C@H](C(=O)[C@@H](O)[C@@H](C)O)[C@@H]1Cc2cc3cc(O[C@H]4C[C@@H](O[C@@H]5C[C@@H](O)[C@H](O)[C@@H](C)O5)[C@H](O)[C@@H](C)O4)c(C)c(O)c3c(O)c2C(=O)[C@H]1O[C@H]1C[C@@H](O[C@@H]2C[C@@H](O)[C@@H](O[C@@H]3C[C@](C)(O)[C@H](O)[C@@H](C)O3)[C@@H](C)O2)[C@H](O)[C@@H](C)O1 [Plicamycin  (Mithramycin A)] | 632 nM | 36.3 nM | 357 nM | 542 nM | 401 nM | 150 nM | 318 nM | 84.6 nM | 110 nM | 495 nM | 57 nM | 64.5 nM | 58.6 nM | 45.3 nM | 66.5 nM | 13.7 | 23.6 | 22 | 11.9 | 14.3 | 14.9 | 20.1 | 14.1 | 22.1 | 18.4 | 13.2 | 21.5 | 19 | 14.9 | 17.4

Continued, in another order:

Row | relative IC50 [1] | relative IC50 [3] | relative IC50 ([4]; 4-OH-tamoxifen in medium 0 µM) | relative IC50 ([4]; 4-OH-tamoxifen in medium 1 µM) | relative IC50 ([5]; 4-OH-tamoxifen in medium 0 µM) | relative IC50 ([5]; 4-OH-tamoxifen in medium 1 µM) | relative IC50 [6] | relative IC50 ([8]; 4-OH-tamoxifen in medium 0 µM) | relative IC50 ([8]; 4-OH-tamoxifen in medium 1 µM) | relative IC50 [10] | relative IC50 [11] | Compound | relative IC50 [2] | relative IC50 [7] | relative IC50 ([9]; 4-OH-tamoxifen in medium 0 µM) | relative IC50 ([9]; 4-OH-tamoxifen in medium 1 µM) | drug sensitivity score [12] | drug sensitivity score [13] | drug sensitivity score [14] | drug sensitivity score ([15]; 4-OH-tamoxifen in medium 0 µM) | drug sensitivity score ([15]; 4-OH-tamoxifen in medium 1 µM) | drug sensitivity score ([16]; 4-OH-tamoxifen in medium 0 µM) | drug sensitivity score ([16]; 4-OH-tamoxifen in medium 1 µM) | drug sensitivity score [17] | drug sensitivity score [18] | drug sensitivity score ([19]; 4-OH-tamoxifen in medium 0 µM) | drug sensitivity score ([19]; 4-OH-tamoxifen in medium 1 µM) | drug sensitivity score ([20]; 4-OH-tamoxifen in medium 0 µM) | drug sensitivity score ([20]; 4-OH-tamoxifen in medium 1 µM) | drug sensitivity score [21] | drug sensitivity score [22]
5 | > 1000 nM | > 1000 nM | > 1000 nM | > 1000 nM | > 1000 nM | > 1000 nM | > 1000 nM | > 1000 nM | > 1000 nM | > 1000 nM | > 1000 nM | C[C@@H](Oc1cc(-c2cnn(C3CCNCC3)c2)cnc1N)c1c(Cl)ccc(F)c1Cl [Crizotinib] | > 1000 nM | > 1000 nM | > 1000 nM | > 1000 nM | 0 | 0 | 0 | 0 | 0 | 0 | 0 | 0 | 0 | 0 | 0 | 0 | 0 | 0 | 0
6 | 394 nM | 123 nM | 309 nM | 349 nM | 191 nM | 187 nM | 331 nM | 97.4 nM | 329 nM | 371 nM | 313 nM | CC(=O)[C@]1(O)Cc2c(O)c3c(c(O)c2[C@@H](O[C@H]2C[C@H](N)[C@H](O)[C@H](C)O2)C1)C(=O)c1ccccc1C3=O [Idarubicin] | 86 nM | 127 nM | 120 nM | 111 nM | 3.94 | 7.63 | 8.94 | 4.38 | 4.91 | 6.65 | 5.56 | 1.86 | 5.45 | 8.26 | 3.11 | 6.29 | 5.81 | 3.03 | 2.4
7 | > 10000 nM | > 10000 nM | > 10000 nM | > 10000 nM | > 10000 nM | > 10000 nM | > 10000 nM | > 10000 nM | > 10000 nM | > 10000 nM | > 10000 nM | CNCc1ccc(-c2[nH]c3cc(F)cc4c3c2CCNC4=O)cc1 | > 10000 nM | > 10000 nM | > 10000 nM | > 10000 nM | 0 | 0 | 0 | 0 | 0 | 0 | 0 | 0 | 0 | 0 | 0 | 0 | 0 | 0 | 0
